Data set [1] concerns VanA VRE E. faecalis BM 4166 and E. faecium ATCC BAA-2317. As to conditions: 3 even at 100 μM; cited from earlier work.
Data set [2] relates to VanA E. faecium ATCC BAA-2317. Put plainly: standard microdilution antimicrobial assay. The data set is classed as cell-based. (In general: Broth dilution looks for growth in wells or tubes with falling amounts of substance.)
Data set [3] has as its system VanA VRE E. faecalis BM 4166 and E. faecium ATCC BAA-2317. In words: bacteria cell membrane permeability assay. To be noted: 10 μM added at 5 min.
Data set [4] deals with two VanA VRE strains. In words: multi-passage resistance development assay. The data set is classed as cell-based. As to conditions: Enterococcus.
The test system of data set [5] is VanA VRE, 4 strains. To be noted: resistant pathogens with D-Ala-D-Lac cell wall precursor; cited from earlier work.
Another data set relates to VanA E. faecium TX2465. In words: standard microdilution antimicrobial assay. The data set is classed as cell-based. To be noted: Enterococcus faecium.
Data set [6] has as its system VanA VRE E. faecium ATCC BAA-2317. It is filed as cell-based. As to conditions: ATCC BAA-2317, +LTA 100 μg/mL.
In another data set the test system is VanA E. faecalis BM 4166. In words: standard microdilution antimicrobial assay. It is filed as cell-based.
The conditions of data set [7]: D-Ala-D-Ala to D-Ala-D-Lac remodeling; cited from earlier work.
In data set [8] the test system is VanB E. faecalis ATCC 51299. Put plainly: standard microdilution antimicrobial assay. The data set is classed as cell-based. As to conditions: Enterococcus faecalis, ATCC51299.
The subject of data set [9] is VanA VRE E. faecalis BM 4166. Put plainly: microbe, parasite or virus in culture. As to conditions: Enterococcus faecalis.
Data set [10] concerns VanA VRE E. faecalis BM 4166. As to conditions: BM 4166, +LTA 100 μg/mL.
The subject of data set [11] is Sensitive S. aureus ATCC 25923. Put plainly: standard microdilution antimicrobial assay. It is filed as cell-based. To be noted: Staphylococcus aureus, ATCC25923.
In data set [12] the test system is VanA VRSA strain (VRS2), S. aureus. To be noted: cited from earlier work.
The test system of data set [13] is VanA VRE E. faecalis BM 4166 and E. faecium ATCC BAA-2317. Put plainly: microdilution antimicrobial assay with added LTA or other additives. As to conditions: 100 μg/mL LTA. It is filed as cell-based.
A further data set in a line: in vivo PK in mice. To be noted: iv.
For data set [14], the system named is MRSA S. aureus ATCC 43300. Put plainly: standard microdilution antimicrobial assay. The data set is classed as cell-based. As to conditions: Staphylococcus aureus, ATCC43300|MRSA.
In data set [15] the test system is VanA VRE, 4 strains. In words: standard microdilution assay, panel of vancomycin-resistant organisms. It is filed as cell-based, E. faecalis, E. faecium.
Data set [16] relates to two VanA VRE strains. To be noted: same two VanA VRE strains; cited from earlier work.

≈ marks a conversion by molar mass, not a printed value. Where two headings read alike, the source gives them in different places.

Regarding `CN[C@H](CC(C)C)C(=O)N[C@H]1C(=O)N[C@@H](CC(N)=O)C(=O)N[C@H]2C(=O)NC3C(=O)N[C@H](C(=O)N[C@H](C(=O)NCCC[N+](C)(C)C)c4cc(O)cc(O)c4-c4cc3ccc4O)[C@H](O)c3ccc(c(Cl)c3)Oc3cc2cc(c3OC2OC(CO)C(O)[C@H](O)[C@@H]2O[C@H]2CC(C)(N)[C@H](O)[C@H](C)O2)Oc2ccc(cc2Cl)[C@H]1O` (stereo partly shown) [C1-vancomycin (3)], the “induced cell membrane permeabilization, in words” value in data set [1] is “weaker”. This compound also displayed an MIC in data set [2] of 31 µg/mL.
Turning to `CN[C@H](CC(C)C)C(=O)N[C@H]1C(=O)N[C@@H](CC(N)=O)C(=O)N[C@H]2C(=O)N[C@H]3C(=O)N[C@H](C(=O)N[C@H](C(=O)O)c4cc(O)cc(O)c4-c4cc3ccc4O)[C@H](O)c3ccc(c(Cl)c3)Oc3cc2cc(c3O[C@@H]2O[C@H](CO)[C@@H](O)[C@H](O)[C@H]2O[C@H]2C[C@](C)(N)[C@H](O)[C@H](C)O2)Oc2ccc(cc2Cl)[C@H]1O` [vancomycin (1), vancomycin], the “induced cell membrane permeabilization, in words” value in [3] was “no permeabilization”. In addition, the MIC against two VanA VRE strains [4] was 250 µg/mL (≈ 173 µM); in the data set with VanA E. faecium TX2465 it was 250 µg/mL (≈ 173 µM); in [6], 250 µg/mL (≈ 173 µM); against VanA E. faecalis BM 4166 (Enterococcus faecalis) it was 250 µg/mL (≈ 173 µM); in data set [8], 8 µg/mL (≈ 5.52 µM); in [9], 250 µg/mL (≈ 173 µM). The MIC in data set [10] came to 250 µg/mL (≈ 173 µM); in data set [11], 0.5 µg/mL (≈ 0.345 µM); in [14] it was 0.5 µg/mL (≈ 0.345 µM). For the same compound, in the data set with VanA VRE, 4 strains [5], the “reduction of antimicrobial potency” value is listed as 1000 fold. For the same compound, the “reduction of binding affinity” value in data set [7] is reported as 1000 fold. For the same compound, in data set [12], the “activity in the thigh infection model, in words” value is “inactive”. In data set [13], the “decrease of antimicrobial activity with added LTA” value is recorded as “no difference”. Further, in the data set “in vivo PK in mice”, the “dose proportionality of PK, in words” value is reported as “well behaved dose proportional PK across all parameters”.
Consider `CN[C@H](CC(C)C)C(=O)N[C@H]1C(=O)N[C@@H](CC(N)=O)C(=O)N[C@H]2C(=O)NC3C(=O)N[C@H](C(=O)N[C@H](C(=O)NCCC[N+](C)(C)C)c4cc(O)cc(O)c4-c4cc3ccc4O)[C@H](O)c3ccc(c(Cl)c3)Oc3cc2cc(c3OC2OC(CO)C(O)[C@H](O)[C@@H]2O[C@H]2CC(C)(NCc3ccc(-c4ccc(Cl)cc4)cc3)[C@H](O)[C@H](C)O2)Oc2ccc(cc2Cl)[C@H]1O` (stereo partly shown) [C1-CBP-vancomycin (4)], for which the “improvement in antimicrobial potency compared with vancomycin” value in the data set on VanA VRE, 4 strains [15] is reported as “ca. 1000 fold”. In the data set “in vivo PK in mice” (10 mg/kg), this compound came in with an AUC of 48.4 Mg-h/mL, a CL of 2 mL/min/kg, a Cmax of 14.5 Mg/mL and a Vss of 0.64 L/kg. In “in vivo PK in mice” (10 mg/kg), the t1/2 is 5.1 h and the tmax was found to be 4.8 min. Also, the “induced cell membrane permeabilization, in words” value in data set [1] was “pronounced membrane permeabilization”. The compound also came in with an MIC in data set [2] of 0.3 µg/mL.
For the compound `CN[C@H](CC(C)C)C(=O)N[C@H]1C(=O)N[C@@H](CC(N)=O)C(=O)N[C@H]2C(=O)N[C@H]3C(=O)N[C@H](C(=O)N[C@H](C(=O)N[C@@H](CCCNC(=N)N)C(=O)O)c4cc(O)cc(O)c4-c4cc3ccc4O)[C@H](O)c3ccc(c(Cl)c3)Oc3cc2cc(c3OC2OC(CO)C(O)[C@H](O)C2O[C@H]2CC(C)(N)[C@H](O)[C@H](C)O2)Oc2ccc(cc2Cl)[C@H]1O` (stereo partly shown) [Arg-vancomycin (11)], the MIC (against VanA E. faecalis BM 4166 (VanA E. faecalis BM 4166); in data set [2]) was 63 µg/mL (≈ 39.2 µM) throughout.
On to `CCCCCCCCCC(=O)N[C@@H](Cc1c[nH]c2ccccc12)C(=O)N[C@H](CC(N)=O)C(=O)N[C@@H](CC(=O)O)C(=O)N[C@@H]1C(=O)NCC(=O)N[C@@H](CCCN)C(=O)N[C@@H](CC(=O)O)C(=O)N[C@H](C)C(=O)N[C@@H](CC(=O)O)C(=O)NCC(=O)N[C@H](CO)C(=O)N[C@@H]([C@H](C)CC(=O)O)C(=O)N[C@@H](CC(=O)c2ccccc2N)C(=O)O[C@@H]1C` [daptomycin], for which the “rate of resistance emergence, in words” value in the data set with two VanA VRE strains [16] was “raise resistance more rapidly and in a more pronounced manner than either 2 or 5”.
As for `CC(=O)NC[C@H]1CN(c2ccc(N3CCOCC3)c(F)c2)C(=O)O1` [linezolid], the “rate of resistance emergence, in words” value in the data set on two VanA VRE strains [16] was “raise resistance more rapidly and in a more pronounced manner than either 2 or 5”.
In the case of `CN(C)c1cc(NC(=O)CNC(C)(C)C)c(O)c2c1C[C@H]1C[C@H]3[C@H](N(C)C)C(O)=C(C(N)=O)C(=O)[C@@]3(O)C(O)=C1C2=O` [tigecycline], in the data set with two VanA VRE strains [16], the “rate of resistance emergence, in words” value was “raise resistance more rapidly and in a more pronounced manner than either 2 or 5”.

In general, Vss refers to the apparent volume that relates the amount in the body to the concentration in plasma or blood.

The values above are taken from publication PMC7429263 (ACS infectious diseases, 2020).
